Assay results published in ChEMBL document CHEMBL3526086, “Identification of the oxidative and conjugative enzymes involved in the biotransformation of brivanib” (Drug Metab Dispos, 2012).

Assays:
Format in all cases: ADME
Cytochrome P450 2B6 [1] = molecular target: T1, Cytochrome P450 2B6 (Homo sapiens, UniProt P20813); experiment: Drug metabolism assessed as human CYP2B6-mediated (R)-1-(4-(4-fluoro-2-(hydroxymethyl)-1H-indol-5-yloxy)-5-methylpyrrolo[1,2-f][1,2,4]triazin-6-yloxy)propan-2-ol formation at 2 and 20 uM for 20 mins by LC/MS analysis in presence of NADPH; conditions: recombinant enzyme
T1 sequence (P20813 whole entry): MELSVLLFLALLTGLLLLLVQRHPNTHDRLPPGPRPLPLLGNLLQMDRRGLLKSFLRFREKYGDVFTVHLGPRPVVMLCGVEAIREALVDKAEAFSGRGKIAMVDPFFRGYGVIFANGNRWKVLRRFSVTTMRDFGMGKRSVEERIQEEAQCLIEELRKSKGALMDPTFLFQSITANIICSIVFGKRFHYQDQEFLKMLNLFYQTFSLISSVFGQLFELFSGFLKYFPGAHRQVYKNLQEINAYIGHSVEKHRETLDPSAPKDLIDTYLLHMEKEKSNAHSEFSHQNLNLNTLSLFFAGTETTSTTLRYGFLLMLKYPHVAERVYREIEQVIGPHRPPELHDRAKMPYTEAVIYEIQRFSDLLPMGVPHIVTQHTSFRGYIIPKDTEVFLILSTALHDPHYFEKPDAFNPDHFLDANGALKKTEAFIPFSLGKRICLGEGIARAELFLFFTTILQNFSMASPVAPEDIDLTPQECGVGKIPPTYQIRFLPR

Cytochrome P450 2C19 [2] = molecular target: T2, Cytochrome P450 2C19 (Homo sapiens, UniProt P33261); experiment: Drug metabolism assessed as human CYP2C19-mediated (R)-1-(4-(4-fluoro-2-(hydroxymethyl)-1H-indol-5-yloxy)-5-methylpyrrolo[1,2-f][1,2,4]triazin-6-yloxy)propan-2-ol formation at 2 and 20 uM for 20 mins by LC/MS analysis in presence of NADPH; conditions: recombinant enzyme
Cytochrome P450 2D6 = Cytochrome P450 2D6 (Homo sapiens, UniProt P10635); experiment: Drug metabolism in human liver microsomes assessed as monoclonal antibody-mediated inhibition of CYP2D6-mediated(R)-1-(4-(4-fluoro-2-(hydroxymethyl)-1H-indol-5-yloxy)-5-methylpyrrolo[1,2-f][1,2,4]triazin-6-yloxy)propan-2-ol formation at 2 and 20 uM for 30 mins by LC/MS analysis; conditions: 0.5 h
Sulfotransferase 1B1 = Sulfotransferase 1B1 (Homo sapiens, UniProt O43704); experiment: Drug metabolism assessed as human SULT1B1-mediated (R)-1-(4-(4-fluoro-2-methyl-1H-indol-5-yloxy)-5-methylpyrrolo[1,2-f][1,2,4]triazin-6-yloxy)propane-2-sulfonic acid formation at 2 and 20 uM for 30 mins by LC/MS analysis in presence of PAPS; conditions: 0.5 h
Cytochrome P450 2C8 = molecular target: T3, Cytochrome P450 2C8 (Homo sapiens, UniProt P10632); experiment: Drug metabolism in human liver microsomes assessed as 3 uM montekulast-mediated inhibition of CYP2C8-mediated (R)-1-(4-(4-fluoro-2-(hydroxymethyl)-1H-indol-5-yloxy)-5-methylpyrrolo[1,2-f][1,2,4]triazin-6-yloxy)propan-2-ol formation at 2 and 20 uM for 30 mins by LC/MS analysis; conditions: 0.5 h
T3 sequence (P10632 whole entry): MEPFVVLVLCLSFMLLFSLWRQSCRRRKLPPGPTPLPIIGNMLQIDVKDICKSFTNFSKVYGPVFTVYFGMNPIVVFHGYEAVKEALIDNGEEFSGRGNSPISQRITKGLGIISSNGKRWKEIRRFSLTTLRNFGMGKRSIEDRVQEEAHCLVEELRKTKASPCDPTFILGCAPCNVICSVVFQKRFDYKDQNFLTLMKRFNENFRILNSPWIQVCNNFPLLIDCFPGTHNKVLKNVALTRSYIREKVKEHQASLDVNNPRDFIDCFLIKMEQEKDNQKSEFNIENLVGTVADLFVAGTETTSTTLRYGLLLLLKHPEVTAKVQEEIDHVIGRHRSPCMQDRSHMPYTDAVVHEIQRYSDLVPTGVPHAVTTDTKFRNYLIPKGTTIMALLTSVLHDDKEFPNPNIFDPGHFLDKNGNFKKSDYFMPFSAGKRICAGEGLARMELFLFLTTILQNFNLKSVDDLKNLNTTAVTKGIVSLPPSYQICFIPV

Cytochrome P450 2C9 [3] = molecular target: T4, Cytochrome P450 2C9 (Homo sapiens, UniProt P11712); experiment: Drug metabolism in human liver microsomes assessed as 10 uM sulfaphenazole-mediated inhibition of CYP2C9-mediated (R)-1-(4-(4-fluoro-2-(hydroxymethyl)-1H-indol-5-yloxy)-5-methylpyrrolo[1,2-f][1,2,4]triazin-6-yloxy)propan-2-ol formation at 2 and 20 uM for 30 mins by LC/MS analysis; conditions: 0.5 h
Cytochrome P450 2C9 [4] = molecular target: T4, Cytochrome P450 2C9; experiment: Drug metabolism assessed as human CYP2C9-mediated (R)-1-(4-(4-fluoro-2-(hydroxymethyl)-1H-indol-5-yloxy)-5-methylpyrrolo[1,2-f][1,2,4]triazin-6-yloxy)propan-2-ol formation at 2 and 20 uM for 20 mins by LC/MS analysis in presence of NADPH; conditions: recombinant enzyme
Cytochrome P450 2B6 [5] = molecular target: T1, Cytochrome P450 2B6; experiment: Drug metabolism in human liver microsomes assessed as monoclonal antibody-mediated inhibition of CYP2B6-mediated (R)-1-(4-(4-fluoro-2-(hydroxymethyl)-1H-indol-5-yloxy)-5-methylpyrrolo[1,2-f][1,2,4]triazin-6-yloxy)propan-2-ol formation at 2 and 20 uM for 30 mins by LC/MS analysis; conditions: 0.5 h
Cytochrome P450 2C19 [6] = molecular target: T2, Cytochrome P450 2C19; experiment: Drug metabolism in human liver microsomes assessed as monoclonal antibody-mediated inhibition of CYP2C19-mediated (R)-1-(4-(4-fluoro-2-(hydroxymethyl)-1H-indol-5-yloxy)-5-methylpyrrolo[1,2-f][1,2,4]triazin-6-yloxy)propan-2-ol formation at 2 and 20 uM for 30 mins by LC/MS analysis; conditions: 0.5 h
Cytochrome P450 3A5 = Cytochrome P450 3A5 (Homo sapiens, UniProt P20815); experiment: Drug metabolism assessed as human CYP3A5-mediated (R)-1-(4-(4-fluoro-2-(hydroxymethyl)-1H-indol-5-yloxy)-5-methylpyrrolo[1,2-f][1,2,4]triazin-6-yloxy)propan-2-ol formation at 2 and 20 uM for 20 mins by LC/MS analysis in presence of NADPH; conditions: recombinant enzyme
Cytochrome P450 3A4 = Cytochrome P450 3A4 (Homo sapiens, UniProt P08684); experiment: Activity of human CYP3A4 assessed as intrinsic clearance for enzyme-mediated (R)-1-(4-(4-fluoro-2-(hydroxymethyl)-1H-indol-5-yloxy)-5-methylpyrrolo[1,2-f][1,2,4]triazin-6-yloxy)propan-2-ol formation per picomole enzyme in presence of NADPH
Sequence of Cytochrome P450 3A4 (P08684 whole entry): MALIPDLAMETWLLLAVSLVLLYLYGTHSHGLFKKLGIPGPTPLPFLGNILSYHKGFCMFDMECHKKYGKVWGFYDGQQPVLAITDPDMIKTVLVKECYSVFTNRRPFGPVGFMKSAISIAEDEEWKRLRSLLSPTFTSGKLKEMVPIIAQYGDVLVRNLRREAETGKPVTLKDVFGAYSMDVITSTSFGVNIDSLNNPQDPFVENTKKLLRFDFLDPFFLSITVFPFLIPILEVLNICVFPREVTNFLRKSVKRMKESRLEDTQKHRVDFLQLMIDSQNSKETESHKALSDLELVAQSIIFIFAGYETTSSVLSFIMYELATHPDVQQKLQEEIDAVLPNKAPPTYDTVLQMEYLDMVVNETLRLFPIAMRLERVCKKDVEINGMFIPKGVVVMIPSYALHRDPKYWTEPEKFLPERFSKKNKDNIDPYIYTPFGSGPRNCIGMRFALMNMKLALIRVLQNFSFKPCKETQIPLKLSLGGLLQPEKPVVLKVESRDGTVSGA

T4 sequence (P11712 whole entry): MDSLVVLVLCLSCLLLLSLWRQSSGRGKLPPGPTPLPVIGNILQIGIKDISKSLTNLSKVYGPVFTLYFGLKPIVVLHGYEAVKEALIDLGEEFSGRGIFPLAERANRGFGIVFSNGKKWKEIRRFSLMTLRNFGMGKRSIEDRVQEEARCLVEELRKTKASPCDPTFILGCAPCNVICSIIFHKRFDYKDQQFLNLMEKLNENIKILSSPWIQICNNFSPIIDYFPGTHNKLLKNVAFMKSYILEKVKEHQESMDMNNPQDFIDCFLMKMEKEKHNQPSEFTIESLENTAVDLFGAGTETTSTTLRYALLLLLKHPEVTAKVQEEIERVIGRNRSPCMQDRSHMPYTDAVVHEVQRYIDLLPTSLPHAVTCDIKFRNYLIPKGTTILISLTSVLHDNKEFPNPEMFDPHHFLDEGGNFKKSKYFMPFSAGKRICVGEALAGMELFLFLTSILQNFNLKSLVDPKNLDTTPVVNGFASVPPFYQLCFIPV
T2 sequence (P33261 whole entry): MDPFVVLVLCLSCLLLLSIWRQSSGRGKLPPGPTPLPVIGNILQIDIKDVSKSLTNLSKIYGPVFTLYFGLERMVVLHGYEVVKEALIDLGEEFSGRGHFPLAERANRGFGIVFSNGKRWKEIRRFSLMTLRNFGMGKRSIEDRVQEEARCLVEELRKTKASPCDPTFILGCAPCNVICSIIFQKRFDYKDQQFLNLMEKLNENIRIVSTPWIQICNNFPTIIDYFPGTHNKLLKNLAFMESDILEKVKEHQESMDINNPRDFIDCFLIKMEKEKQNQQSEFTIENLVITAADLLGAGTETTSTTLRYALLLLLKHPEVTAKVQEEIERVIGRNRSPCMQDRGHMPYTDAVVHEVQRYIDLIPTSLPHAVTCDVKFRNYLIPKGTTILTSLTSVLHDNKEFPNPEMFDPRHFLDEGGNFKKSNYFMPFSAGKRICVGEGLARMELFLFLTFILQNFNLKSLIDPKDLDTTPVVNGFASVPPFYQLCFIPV
Sequence of Cytochrome P450 2D6 (P10635 whole entry): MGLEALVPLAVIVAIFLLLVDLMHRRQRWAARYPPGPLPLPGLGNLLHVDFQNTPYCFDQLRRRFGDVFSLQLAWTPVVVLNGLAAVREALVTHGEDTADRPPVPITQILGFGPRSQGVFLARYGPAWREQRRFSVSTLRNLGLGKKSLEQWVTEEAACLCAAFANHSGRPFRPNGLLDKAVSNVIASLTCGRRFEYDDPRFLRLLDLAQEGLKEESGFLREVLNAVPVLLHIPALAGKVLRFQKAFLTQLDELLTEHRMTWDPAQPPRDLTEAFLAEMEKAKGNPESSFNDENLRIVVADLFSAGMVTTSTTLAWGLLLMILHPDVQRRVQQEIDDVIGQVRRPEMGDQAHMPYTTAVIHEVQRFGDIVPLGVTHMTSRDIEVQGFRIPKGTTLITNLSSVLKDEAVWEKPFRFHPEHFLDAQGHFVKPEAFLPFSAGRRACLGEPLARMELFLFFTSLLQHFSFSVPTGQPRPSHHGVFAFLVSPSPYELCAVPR
Sequence of Sulfotransferase 1B1 (O43704 whole entry): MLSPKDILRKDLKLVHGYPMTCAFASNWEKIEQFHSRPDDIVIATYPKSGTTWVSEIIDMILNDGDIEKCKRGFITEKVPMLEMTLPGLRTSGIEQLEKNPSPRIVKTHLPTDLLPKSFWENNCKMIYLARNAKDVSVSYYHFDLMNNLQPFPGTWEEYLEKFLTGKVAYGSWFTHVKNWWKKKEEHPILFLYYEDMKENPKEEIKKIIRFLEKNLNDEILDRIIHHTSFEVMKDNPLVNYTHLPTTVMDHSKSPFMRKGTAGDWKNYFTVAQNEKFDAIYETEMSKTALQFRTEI
Sequence of Cytochrome P450 3A5 (P20815 whole entry): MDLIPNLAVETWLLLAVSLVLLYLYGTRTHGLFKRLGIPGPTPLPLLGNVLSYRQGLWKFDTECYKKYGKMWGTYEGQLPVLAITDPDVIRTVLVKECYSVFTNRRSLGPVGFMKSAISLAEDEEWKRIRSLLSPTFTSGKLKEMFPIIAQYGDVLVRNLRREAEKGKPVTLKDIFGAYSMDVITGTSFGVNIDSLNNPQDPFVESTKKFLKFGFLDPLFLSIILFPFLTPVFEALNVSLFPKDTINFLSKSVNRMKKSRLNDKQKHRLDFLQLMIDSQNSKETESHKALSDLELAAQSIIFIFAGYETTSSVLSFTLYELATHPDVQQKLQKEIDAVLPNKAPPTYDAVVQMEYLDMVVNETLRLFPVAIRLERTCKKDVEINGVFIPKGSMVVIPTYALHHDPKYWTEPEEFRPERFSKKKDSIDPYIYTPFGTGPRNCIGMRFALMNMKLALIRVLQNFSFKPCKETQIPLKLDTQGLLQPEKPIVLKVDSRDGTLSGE

- Drug metabolism (Cytochrome P450 2B6 [1]): metabolite_detected
- Drug metabolism (Cytochrome P450 2C19 [2]): metabolite_detected
- Drug metabolism (Cytochrome P450 2D6): metabolite_detected
- Drug metabolism (Sulfotransferase 1B1): metabolite_detected
- Drug metabolism (Cytochrome P450 2C8): metabolite_detected
- Drug metabolism (Cytochrome P450 2C9 [3]): metabolite_detected
- Drug metabolism (Cytochrome P450 2C9 [4]): metabolite_detected
- Drug metabolism (Cytochrome P450 2B6 [5]): metabolite_detected
- Drug metabolism (Cytochrome P450 2C19 [6]): metabolite_detected
- Drug metabolism (Cytochrome P450 3A5): metabolite_detected
- CL (Cytochrome P450 3A4): 0.016 µL/min
SMILES: Cc1cc2c(F)c(Oc3ncnn4cc(OC[C@@H](C)O)c(C)c34)ccc2[nH]1 [BRIVANIB]
